Source: PMC9607599, “Dual Targeting Ligands—Histamine H3 Receptor Ligands with Monoamine Oxidase B Inhibitory Activity—In Vitro and In Vivo Evaluation” (Pharmaceutics, 2022)
Where “and” joins values, the source holds several entries; their conditions need not be identical. Equal values may be shown once. One block for each compound: values may come before it.

Columns and labels:
Format in all cases: in vivo
[1] = system: rat brain (cerebral cortex, hypothalamus, striatum) monoamines; experiment: HPLC-ED detection of monoamines and metabolites in rat brain tissue after sub-chronic administration; conditions: for 5-HIAA/5-HT ratio / DOPAC/DA ratio / HVA/DA ratio / MHPG/NA ratio: mean ± SEM
Procedure: (§1) The compound 13 was given to intact Wistar rats to verify its impact on the metabolism of biogenic amines in the brain (cerebral amines and their metabolites concentrations as well as activities of metabolizing enzymes). […] Both drugs (3 mg/kg body mass, dissolved in 0.9% NaCl) were given subcutaneously for 6 consecutive days. Control rats were injected with 200 μL of 0.9% NaCl.
(§2) Tissues were collected and properly prepared for subsequent biochemical analyzes. The brain was quickly removed from the skull and the selected structures (hypothalamus, striatum, cerebral cortex) were dissected according to the method by Glowinsky and Iversen, immediately frozen in liquid nitrogen and kept at −80 °C until assayed.
The concentration of dopamine (DA), serotonin (5-HT) and noradrenaline (NA) as well as their metabolites, i.e., 3,4-dihydroxyphenylacetic acid (DOPAC), homovanillic acid (HVA), 3-methoxy-4-hydroxyphenylglycol (MHPG) and 5-hydroxyindoleacetic acid (5-HIAA) was determined in striatum (STR), hypothalamus (HPT) and cerebral cortex (CTX) with the RP-HPLC-ED method.
Cerebral samples for HPLC analysis were homogenized using an ultrasonic homogenizer (Fisher BioBlock Scientific, France) for 15 s in 150 μL homogenization solution (0.1 M HClO4 containing 0.4 mM Na2S2O5), and centrifuged at 12,000 rpm for 15 min at 4 °C. At least 100 μL of the supernatant was transferred to chromatographic tubes and kept at –80 °C until analysis. Next, 20 μL of the filtrates was injected into the HPLC system.
The Agilent 1100 chromatographic system with Waters Spherisorb ODS-1 RP C-18 chromatographic column (4.6 × 250 mm) preceded by a Zorbax SB-C18 pre-column (4.6 × 12.5 mm) was used. Column temperature was set at 35 °C and mobile phase flow at 1 mL/min. The glassy carbon working electrode was set at +0.65 V, relative to the Ag/AgCl reference electrode. The mobile phase consisted of a phosphate buffer (3.4 pH) containing: 0.15 M NaH2PO4 x H2O, […] Na2EDTA, 0.5 mM Na2OSA, 0.5 mM LiCl and addition of methanol (10%). The chromatographic data were analyzed using ChemStation, Revision-B.03.02, Agilent software.
The concentrations of monoamines and their metabolites in each sample were calculated from the integrated chromatographic peak area and presented in nmol/gram of wet tissue. Additionally, the ratio of metabolites to their parent amines was calculated.

[2] = target: T1, MAO B in rat cerebral cortex (Rattus norvegicus, UniProt P19643); experiment: MAO B activity in cerebral cortex homogenates after sub-chronic administration (radioassay); conditions: 3 mg/kg/day s.c. for 6 days
T1 construct: from tissue; host or cells: cerebral cortex homogenate of male Wistar rats
T1 sequence (P19643 1-520): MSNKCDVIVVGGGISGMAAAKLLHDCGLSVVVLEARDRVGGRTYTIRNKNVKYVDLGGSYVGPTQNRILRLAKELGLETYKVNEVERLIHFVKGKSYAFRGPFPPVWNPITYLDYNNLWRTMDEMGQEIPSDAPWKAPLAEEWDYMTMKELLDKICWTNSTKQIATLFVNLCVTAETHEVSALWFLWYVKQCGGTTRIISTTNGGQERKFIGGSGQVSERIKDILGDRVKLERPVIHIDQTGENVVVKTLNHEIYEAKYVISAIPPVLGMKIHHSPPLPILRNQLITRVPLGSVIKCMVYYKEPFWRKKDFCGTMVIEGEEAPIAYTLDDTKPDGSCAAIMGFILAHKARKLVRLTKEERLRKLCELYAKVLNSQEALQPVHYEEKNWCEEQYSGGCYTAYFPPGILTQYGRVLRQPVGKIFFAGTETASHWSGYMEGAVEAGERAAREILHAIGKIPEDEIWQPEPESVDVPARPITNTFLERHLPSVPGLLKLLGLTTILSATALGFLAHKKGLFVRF
Procedure: as §1, §2
MAO A and MAO B activities were estimated in cerebral homogenates with radioassays using 5-[2-^14C]-hydroxytryptamine binoxalate (final conc. 200 µM) and β-[ethyl-1-^14C]-phenylethylamine hydrochloride (final conc. 20 µM), as well as specific inhibitors—clorgyline and deprenyl (final conc. 10^−9 M), respectively.
(§3) The enzyme activities are expressed as pmol/min/mg protein. Protein concentration was analyzed by Lowry’s method.

[3] = target: T2, HNMT in rat cerebral cortex (Rattus norvegicus, UniProt Q01984); experiment: histamine N-methyltransferase activity after sub-chronic administration (radioenzymatic); conditions: 3 mg/kg/day s.c. for 6 days
T2 construct: from tissue; host or cells: cerebral cortex of male Wistar rats
Procedure: as §1, §2
Histamine N-methyltransferase activity was determined radioenzymatically according to Taylor and Snyder by measurements of radioactive N-tele-methylhistamine formed in a transmethylation reaction catalyzed by the enzyme, as previously described. S-adenosyl-L-(methyl-^14C)-methionine was used as a donor of methyl group.
as §3

[4] = cerebral cortex, 3 mg/kg s.c. for 6 days
[5] = not statistically significant, vs control
[6] = striatum, 3 mg/kg s.c. for 6 days

T2 sequence (Q01984 whole entry): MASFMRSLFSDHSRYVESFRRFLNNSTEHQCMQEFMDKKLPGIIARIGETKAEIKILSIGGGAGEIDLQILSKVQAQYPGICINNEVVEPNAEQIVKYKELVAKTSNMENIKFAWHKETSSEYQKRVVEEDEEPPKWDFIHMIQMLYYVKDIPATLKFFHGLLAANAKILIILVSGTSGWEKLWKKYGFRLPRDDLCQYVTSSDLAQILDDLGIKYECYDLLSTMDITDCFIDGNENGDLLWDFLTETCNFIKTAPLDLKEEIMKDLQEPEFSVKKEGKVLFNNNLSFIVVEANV

Compound: CC1CCCN1CCCOc1ccc(C(C)(C)C)cc1.O=C(O)C(=O)O (stereo not shown) [Compound 13, 1-(3-(4-(tert-Butyl)phenoxy)propyl)-2-methylpyrrolidine hydrogen oxalate]
5-HIAA/5-HT ratio ([1]; CTX, 3 mg/kg s.c. for 6 days): 1.211 ± 0.202 | DOPAC/DA ratio ([1]; CTX, 3 mg/kg s.c. for 6 days): 0.364 ±0.080 **^,## | HVA/DA ratio ([1]; CTX, 3 mg/kg s.c. for 6 days): 0.254 ± 0.015 *^,## | 5-HIAA/5-HT ratio ([1]; HPT, 3 mg/kg s.c. for 6 days): 0.810 ±0.061 | DOPAC/DA ratio ([1]; HPT, 3 mg/kg s.c. for 6 days): 0.359 ±0.117 | HVA/DA ratio ([1]; HPT, 3 mg/kg s.c. for 6 days): 0.329 ± 0.091 | MHPG/NA ratio ([1]; HPT, 3 mg/kg s.c. for 6 days): 0.205 ±0.030 | 5-HIAA/5-HT ratio ([1]; STR, 3 mg/kg s.c. for 6 days): 2.456 ± 0.908 | DOPAC/DA ratio ([1]; STR, 3 mg/kg s.c. for 6 days): 0.207 ± 0.067 | HVA/DA ratio ([1]; STR, 3 mg/kg s.c. for 6 days): 0.486 ± 0.388 | MHPG/NA ratio ([1]; STR, 3 mg/kg s.c. for 6 days): 0.329 ± 0.057 | 5-HIAA level in CTX [1, 4]: 1.320 ± 0.153 nmol/g wet tissue | 5-HT level in CTX [1, 4]: 1.194 ± 0.139 nmol/g wet tissue | DA content in CTX [1, 4]: 1.777 ± 0.128 nmol/g wet tissue | DOPAC level in CTX [1, 4]: 0.562 ± 0.093 nmol/g wet tissue | MHPG concentration in CTX [1, 4]: 0.897 ± 0.280 nmol/g wet tissue | NA concentration in CTX [1, 4]: 1.255 ± 0.152 nmol/g wet tissue | DA concentration in hypothalamus, in words [1, 5]: slight increase | DOPAC concentration in hypothalamus, in words [1, 5]: decrease | DA content in STR [1, 6]: 9.914 ± 1.718 nmol/g wet tissue | DOPAC level in STR [1, 6]: 1.704 ± 0.187 nmol/g wet tissue | 5-HIAA level in hypothalamus, in words ([1]; vs control): statistically significant decrease | 5-HT and 5-HIAA concentrations in the striatum, in words ([1]; vs control): did not affect | 5-HT content in hypothalamus, in words ([1]; vs control): no changes | NA and MHPG concentration in the other examined brain structures (HPT, STR), in words ([1]; vs control): no differences were found | MAO B activity in cerebral cortex [2]: 48.38 ± 12.02 pmol/min/mg protein | decline in MAO B activity in rat cerebral cortex ([2]; vs control): 91.7% and > 90% | HNMT activity [3]: 40.09 ± 1.77 pmol/min/mg of protein

HNMT activity [3]: 42.51 ± 1.40 pmol/min/mg of protein
Compound: Clc1ccc(CCCOCCCN2CCCCC2)cc1 [Pitolisant, 3-(4-chlorophenyl)propyl 3-piperidinopropyl ether, reference compound]
content in brain tissue of the examined biogenic amines and their metabolites compared to control, in words ([1]; 3 mg/kg s.c. for 6 days): did not show any differences | MAO B activity vs control, in words [2]: close to that recorded in control animals
